# Assay results published in paper PMC3648463, “Common Interactions between S100A4 and S100A9 Defined by a Novel Chemical Probe” (PLoS ONE, 2013).
# Assays:
# [1] = molecular target: T1, S100A9 (Homo sapiens, UniProt P06702); assay: SPR direct binding to amine-coupled S100A9; SPR inhibition of S100A9 binding to immobilized RAGE (IC50 […]) and TLR4 ([…])
# T1 construct: recombinant human S100A9 (produced in E. coli)
# T1 sequence (P06702 1-114): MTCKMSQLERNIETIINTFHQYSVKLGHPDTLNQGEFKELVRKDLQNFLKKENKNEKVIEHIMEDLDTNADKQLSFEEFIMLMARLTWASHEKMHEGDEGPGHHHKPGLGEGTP
# [2] = molecular target: T2, S100A4 (Homo sapiens, UniProt P26447); assay: SPR direct binding to amine-coupled S100A4; SPR inhibition of S100A4 binding to immobilized RAGE (IC50 […], Figure 5C)
# T2 construct: human S100A4 (R&D Systems)
# T2 sequence (P26447 2-101): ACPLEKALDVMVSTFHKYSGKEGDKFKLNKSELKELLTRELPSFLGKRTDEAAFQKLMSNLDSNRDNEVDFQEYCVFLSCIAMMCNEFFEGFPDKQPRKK
smiles,measurement,setting,value
"O=C(Nc1cc(Cl)cc(Cl)c1O)c1c(O)c(Cl)cc(Cl)c1Cl [OX, Oxyclozanide]",IC50,[1],~1.3 µM
same,IC50,[2],52 µM
